Assay [1] addresses T1, Eukaryotic elongation factor 2 kinase (Rattus norvegicus, UniProt P70531).
T1 sequence (P70531 whole entry): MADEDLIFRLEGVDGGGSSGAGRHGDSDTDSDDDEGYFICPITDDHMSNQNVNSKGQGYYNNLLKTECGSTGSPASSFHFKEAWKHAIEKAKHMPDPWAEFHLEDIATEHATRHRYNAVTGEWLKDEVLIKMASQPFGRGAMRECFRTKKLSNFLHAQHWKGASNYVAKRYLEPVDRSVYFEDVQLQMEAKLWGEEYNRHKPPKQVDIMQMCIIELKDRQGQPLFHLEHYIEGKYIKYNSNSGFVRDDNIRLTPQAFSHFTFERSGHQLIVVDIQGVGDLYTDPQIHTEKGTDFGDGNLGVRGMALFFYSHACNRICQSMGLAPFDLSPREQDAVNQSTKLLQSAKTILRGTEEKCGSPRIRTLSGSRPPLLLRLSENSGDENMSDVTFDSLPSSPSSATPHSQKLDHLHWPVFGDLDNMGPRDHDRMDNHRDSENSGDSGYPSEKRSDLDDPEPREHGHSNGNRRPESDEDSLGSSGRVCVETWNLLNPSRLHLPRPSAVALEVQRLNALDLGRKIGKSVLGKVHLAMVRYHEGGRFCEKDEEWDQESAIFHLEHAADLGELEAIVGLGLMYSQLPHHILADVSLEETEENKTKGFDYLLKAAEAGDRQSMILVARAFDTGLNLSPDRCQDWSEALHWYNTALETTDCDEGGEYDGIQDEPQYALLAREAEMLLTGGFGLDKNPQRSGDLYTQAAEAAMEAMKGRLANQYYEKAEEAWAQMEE
As to the kind of experiment: Inhibition of recombinant rat GST-tagged eEF2K expressed in Escherichia coli BL21 (DE3) cells using yeast eEF2 as substrate preincubated for 30 mins followed by ATP/[gamma-32P]-ATP addition measured after 10 mins.

For assay [2], the target named is T2, Eukaryotic elongation factor 2 kinase (Homo sapiens, UniProt O00418).
T2 sequence (O00418 whole entry): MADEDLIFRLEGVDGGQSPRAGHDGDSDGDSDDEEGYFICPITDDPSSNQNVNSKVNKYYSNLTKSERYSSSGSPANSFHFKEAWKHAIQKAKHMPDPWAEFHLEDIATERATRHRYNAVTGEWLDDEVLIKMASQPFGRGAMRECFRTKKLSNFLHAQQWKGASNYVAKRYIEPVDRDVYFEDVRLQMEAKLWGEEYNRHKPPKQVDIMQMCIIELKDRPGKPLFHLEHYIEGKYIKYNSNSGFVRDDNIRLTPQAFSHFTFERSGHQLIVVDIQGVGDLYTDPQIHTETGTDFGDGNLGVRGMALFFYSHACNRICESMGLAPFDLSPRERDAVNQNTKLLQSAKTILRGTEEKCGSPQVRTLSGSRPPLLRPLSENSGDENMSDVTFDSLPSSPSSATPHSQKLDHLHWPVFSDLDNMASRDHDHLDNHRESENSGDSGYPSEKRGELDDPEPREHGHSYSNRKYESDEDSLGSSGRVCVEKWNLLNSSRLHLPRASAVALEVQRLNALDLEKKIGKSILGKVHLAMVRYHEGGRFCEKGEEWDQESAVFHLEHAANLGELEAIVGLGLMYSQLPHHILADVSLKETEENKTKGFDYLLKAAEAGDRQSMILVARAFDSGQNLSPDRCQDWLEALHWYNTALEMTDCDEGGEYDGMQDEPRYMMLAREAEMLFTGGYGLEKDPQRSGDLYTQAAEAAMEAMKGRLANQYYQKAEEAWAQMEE
As to the kind of experiment: Inhibition of N-terminal GST-tagged recombinant human eEF2K expressed in Escherichia coli using biotinylated myelin basic protein as substrate after 45 mins in presence of [gamma-33P]-ATP by scintillation counting method.

Structures are written as SMILES.

In general, IC50 refers to the concentration that gives 50% inhibition. Regarding `CCC1(O)CC(C(C)C)[Se]C(c2ccc(C)cc2)=N1` (configuration not stated), the IC50 in assay [1] came to 360 nM. As for `CCCCCCCCCCCCCCCC[N+]1=C(C)N(Cc2ccccc2)CC1`, in assay [2], the IC50 stood at 60 nM.

The values above are taken from ChEMBL document CHEMBL4138216, “Design, synthesis and structure-activity relationship of a focused library of β-phenylalanine derivatives as novel eEF2K inhibitors with apoptosis-inducing mechanisms in breast cancer” (Eur J Med Chem, 2018).
